Values quoted from earlier work, collected in patent US7705146B2, “Hepatitis C inhibitor peptide analogs” (Boehringer Ingelheim International GmbH, priority 2004, dated 2010).

System: hepatitis C virus
Conditions: two day clinical trial, patients infected with the hepatitis C virus

SMILES: COc1ccc2c(O[C@@H]3C[C@H]4C(=O)N[C@]5(C(=O)O)C[C@H]5/C=C\CCCCC[C@H](NC(=O)OC5CCCC5)C(=O)N4C3)cc(-c3csc(NC(C)C)n3)nc2c1 [BILN 2061]
- reduction of viral loads in patients: effective in rapidly reducing viral loads
